Measured values published in PubChem BioAssay (NCI).
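How tested: cells in 96-well plates exposed to compound for 48 hours at five concentrations. TGI denotes the concentration required for complete inhibition of growth.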

Experiments:
Test in all cases: growth of human tumour cells (NCI), 48 h
[1] = tested on: OVCAR-8 ovarian
[2] = tested on: UACC-62 melanoma
[3] = tested on: LOX IMVI melanoma
[4] = tested on: MDA-MB-231 breast
[5] = tested on: NCI/ADR-RES ovarian
[6] = tested on: SR leukemia
[7] = tested on: OVCAR-5 ovarian
[8] = tested on: DU-145 prostate
[9] = tested on: ACHN renal
[10] = tested on: HCT-15 colon
[11] = tested on: NCI-H23 lung
[12] = tested on: A549 NSCLC
[13] = tested on: MALME-3M melanoma
[14] = tested on: IGROV1 ovarian
[15] = tested on: 786-0 renal
[16] = tested on: HL-60(TB) leukemia
[17] = tested on: SF-539 CNS
[18] = tested on: BT-549 breast
[19] = tested on: SK-MEL-5 melanoma
[20] = tested on: SN12C renal
[21] = tested on: PC-3 prostate
[22] = tested on: MDA-MB-435
[23] = tested on: HS 578T breast
[24] = tested on: T-47D breast
[25] = tested on: M14 melanoma
[26] = tested on: SW-620 colon
[27] = tested on: MDA-N
[28] = tested on: KM12 colon
[29] = tested on: U251 CNS
[30] = tested on: MOLT-4 leukemia
[31] = tested on: HCT-116 colon
[32] = tested on: OVCAR-3 ovarian
[33] = tested on: EKVX NSCLC
[34] = tested on: OVCAR-4 ovarian
[35] = tested on: RPMI-8226 leukemia
[36] = tested on: HCC-2998 colon
[37] = tested on: NCI-H522 lung
[38] = tested on: SK-MEL-2 melanoma
[39] = tested on: SF-295 CNS
[40] = tested on: RXF 393 renal
[41] = tested on: HOP-62 NSCLC
[42] = tested on: HT29 colon
[43] = tested on: SNB-75 CNS
[44] = tested on: NCI-H226 lung
[45] = tested on: K-562 leukemia
[46] = tested on: CAKI-1 renal
[47] = tested on: SK-OV-3 ovarian
[48] = tested on: UACC-257 melanoma
[49] = tested on: UO-31 renal
[50] = tested on: MCF7 breast
[51] = tested on: COLO 205 colon
[52] = tested on: SK-MEL-28 melanoma
[53] = tested on: TK-10 renal
[54] = tested on: SNB-19 CNS
[55] = tested on: CCRF-CEM leukemia
[56] = tested on: A498 renal
[57] = tested on: SF-268 CNS
[58] = tested on: NCI-H460 lung

CC(C)/C=N\N1C(N)=C(C#N)C(C#N)(C#N)C1C(C)C (configuration not stated)
TGI [1]: 58.1 µM | TGI [2]: 76.5 µM | TGI [3]: > 100 µM | TGI [4]: > 100 µM | TGI [5]: 82.8 µM | TGI [6]: 82.9 µM | TGI [7]: > 100 µM | TGI [8]: > 100 µM | TGI [9]: > 100 µM | TGI [10]: > 100 µM | TGI [11]: > 100 µM | TGI [12]: > 100 µM | TGI [13]: > 100 µM | TGI [14]: > 100 µM | TGI [15]: > 100 µM | TGI [16]: 91.7 µM | TGI [17]: 64.8 µM | TGI [18]: 92.3 µM | TGI [19]: > 100 µM | TGI [20]: > 100 µM | TGI [21]: > 100 µM | TGI [22]: 58.6 µM | TGI [23]: > 100 µM | TGI [24]: > 100 µM | TGI [25]: > 100 µM | TGI [26]: > 100 µM | TGI [27]: 69.8 µM | TGI [28]: > 100 µM | TGI [29]: > 100 µM | TGI [30]: > 100 µM | TGI [31]: > 100 µM | TGI [32]: > 100 µM | TGI [33]: > 100 µM | TGI [34]: > 100 µM | TGI [35]: > 100 µM | TGI [36]: > 100 µM | TGI [37]: > 100 µM | TGI [38]: > 100 µM | TGI [39]: > 100 µM | TGI [40]: > 100 µM | TGI [41]: > 100 µM | TGI [42]: 80 µM | TGI [43]: > 100 µM | TGI [44]: > 100 µM | TGI [45]: > 100 µM | TGI [46]: > 100 µM | TGI [47]: > 100 µM | TGI [48]: > 100 µM | TGI [49]: > 100 µM | TGI [50]: > 100 µM | TGI [51]: > 100 µM | TGI [52]: > 100 µM | TGI [53]: > 100 µM | TGI [54]: > 100 µM | TGI [55]: 93.2 µM | TGI [56]: > 100 µM | TGI [57]: > 100 µM

S=c1nc2sc3c(c2c(Nc2ccccc2)[nH]1)CCCC3
TGI [1]: > 100 µM | TGI [2]: > 100 µM | TGI [3]: > 100 µM | TGI [4]: > 100 µM | TGI [5]: > 100 µM | TGI [6]: > 100 µM | TGI [7]: > 100 µM | TGI [8]: > 100 µM | TGI [9]: > 100 µM | TGI [10]: > 100 µM | TGI [11]: > 100 µM | TGI [13]: > 100 µM | TGI [14]: > 100 µM | TGI [15]: > 100 µM | TGI [16]: > 100 µM | TGI [18]: > 100 µM | TGI [19]: > 100 µM | TGI [20]: > 100 µM | TGI [21]: > 100 µM | TGI [22]: > 100 µM | TGI [23]: > 100 µM | TGI [24]: > 100 µM | TGI [26]: > 100 µM | TGI [27]: > 100 µM | TGI [28]: > 100 µM | TGI [29]: > 100 µM | TGI [30]: > 100 µM | TGI [31]: > 100 µM | TGI [32]: > 100 µM | TGI [33]: > 100 µM | TGI [34]: > 100 µM | TGI [35]: > 100 µM | TGI [36]: > 100 µM | TGI [37]: > 100 µM | TGI [38]: > 100 µM | TGI [39]: > 100 µM | TGI [58]: > 100 µM | TGI [40]: > 100 µM | TGI [41]: > 100 µM | TGI [42]: > 100 µM | TGI [43]: > 100 µM | TGI [44]: > 100 µM | TGI [45]: > 100 µM | TGI [46]: > 100 µM | TGI [48]: > 100 µM | TGI [49]: > 100 µM | TGI [50]: > 100 µM | TGI [51]: > 100 µM | TGI [52]: > 100 µM | TGI [53]: > 100 µM | TGI [54]: > 100 µM | TGI [56]: > 100 µM | TGI [57]: > 100 µM

Nc1ccc(Cc2ccc(N=Cc3ccc(OCc4cccc(COc5ccc(C=Nc6ccc(Cc7ccc(N)cc7)cc6)cc5)n4)cc3)cc2)cc1
TGI [1]: > 100 µM | TGI [2]: > 100 µM | TGI [3]: > 100 µM | TGI [4]: > 100 µM | TGI [5]: > 100 µM | TGI [6]: > 100 µM | TGI [7]: > 100 µM | TGI [8]: > 100 µM | TGI [9]: > 100 µM | TGI [10]: > 100 µM | TGI [11]: > 100 µM | TGI [12]: > 100 µM | TGI [13]: > 100 µM | TGI [14]: > 100 µM | TGI [15]: > 100 µM | TGI [16]: > 100 µM | TGI [17]: 26.6 µM | TGI [18]: > 100 µM | TGI [19]: > 100 µM | TGI [20]: > 100 µM | TGI [21]: > 100 µM | TGI [22]: > 100 µM | TGI [23]: > 100 µM | TGI [24]: > 100 µM | TGI [25]: > 100 µM | TGI [26]: > 100 µM | TGI [27]: > 100 µM | TGI [28]: > 100 µM | TGI [29]: > 100 µM | TGI [30]: > 100 µM | TGI [31]: > 100 µM | TGI [32]: > 100 µM | TGI [33]: > 100 µM | TGI [34]: > 100 µM | TGI [35]: > 100 µM | TGI [36]: > 100 µM | TGI [37]: > 100 µM | TGI [38]: > 100 µM | TGI [39]: > 100 µM | TGI [58]: > 100 µM | TGI [40]: 68 µM | TGI [41]: > 100 µM | TGI [42]: > 100 µM | TGI [43]: 39.7 µM | TGI [44]: > 100 µM | TGI [45]: > 100 µM | TGI [46]: > 100 µM | TGI [48]: > 100 µM | TGI [49]: > 100 µM | TGI [50]: > 100 µM | TGI [51]: > 100 µM | TGI [52]: > 100 µM | TGI [53]: > 100 µM | TGI [54]: > 100 µM | TGI [55]: > 100 µM | TGI [56]: > 100 µM | TGI [57]: > 100 µM
